According to patent US10023534B2 (BRISTOL-MYERS SQUIBB COMPANY, priority 2014, dated 2018):
Where two headings read alike, the source gives them in different places.

Assays:
human recombinant Btk = human recombinant Btk (Homo sapiens (Human), UniProt Q06187); assay: Human Recombinant Btk Enzyme Assay; format: biochemical; details: for Potency Difference Btk: ratio of IC50 value for the Comparative Example to that for the corresponding Example: Comparative Example (stereoisomer) IC50 / Example IC50
Sequence of human recombinant Btk (Q06187 whole entry): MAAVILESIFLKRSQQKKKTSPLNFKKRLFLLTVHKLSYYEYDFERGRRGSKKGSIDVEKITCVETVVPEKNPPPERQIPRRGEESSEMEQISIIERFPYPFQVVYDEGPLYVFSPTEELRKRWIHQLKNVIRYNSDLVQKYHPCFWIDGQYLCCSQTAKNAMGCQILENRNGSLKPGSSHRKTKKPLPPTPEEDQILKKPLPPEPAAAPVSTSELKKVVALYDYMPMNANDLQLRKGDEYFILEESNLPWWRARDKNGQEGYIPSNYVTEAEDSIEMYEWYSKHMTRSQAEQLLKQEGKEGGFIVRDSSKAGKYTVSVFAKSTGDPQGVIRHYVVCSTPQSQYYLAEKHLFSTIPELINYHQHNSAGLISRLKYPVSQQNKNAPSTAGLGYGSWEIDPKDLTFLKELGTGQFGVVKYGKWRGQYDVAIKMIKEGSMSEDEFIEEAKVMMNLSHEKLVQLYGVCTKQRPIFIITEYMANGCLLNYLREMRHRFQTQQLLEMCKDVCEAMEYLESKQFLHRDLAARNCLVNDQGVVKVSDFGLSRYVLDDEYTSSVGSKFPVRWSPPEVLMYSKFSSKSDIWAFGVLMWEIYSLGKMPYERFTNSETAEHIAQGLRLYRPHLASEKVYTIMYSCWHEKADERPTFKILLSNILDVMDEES
Procedure: Human Recombinant Btk Enzyme Assay
To V-bottom 384-well plates were added test compounds, human recombinant Btk (1 nM, Invitrogen Corporation), fluoresceinated peptide (1.5 μM), ATP (20 μM), and assay buffer (20 mM HEPES pH 7.4, 10 mM MgCl2, 0.015% Brij 35 surfactant and 4 mM DTT in 1.6% DMSO), with a final volume of 30 μL. After incubating at room temperature for 60 min, the reaction was terminated by adding 45 μL of 35 mM EDTA to each sample. The reaction mixture was analyzed on the Caliper LABCHIP® 3000 (Caliper, Hopkinton, Mass.) by electrophoretic separation of the fluorescent substrate and phosphorylated product. […] Compounds were dissolved at 10 mM in DMSO and evaluated at eleven concentrations.

Ramos RA1 B cells = assay: Ramos FLIPR Assay (intracellular calcium flux, anti-human IgM stimulated); format: cell-based; details: for Potency Difference Ramos: ratio of IC50 value for the Comparative Example to that for the corresponding Example: Comparative Example (stereoisomer) IC50 / Example IC50
Procedure: Ramos FLIPR Assay […] Dye-loaded cells were pelleted (Beckmann GS-CKR, 1200 rpm, room temperature, 5 min) and resuspended at room temperature in RPMI minus phenol red with 50 mM HEPES and 10% FBS to a density of 1×10^6 cells/mL. 150 μL aliquots (150,000 cells/well) were plated into 96 well poly-D-lysine coated assay plates (BD 35 4640) and briefly centrifuged (Beckmann GS-CKR 800 rpm, 5 min, without brake). Next, 50 μL compound dilutions in 0.4% DMSO/RPMI minus phenol red+50 mM HEPES+10% FBS were added to the wells and the plate was incubated at room temperature in the dark for 1 hour. The assay plate was briefly centrifuged as above prior to measuring calcium levels. Using the […] (Molecular Devices), cells were stimulated by adding goat anti-human IgM (Invitrogen AHI0601) to 2.5 μg/mL. Changes in intracellular calcium concentrations were measured for 180 seconds and percent inhibition was determined relative to peak calcium levels seen in the presence of stimulation only. The Ramos assay measures the ability of a compound to move through the cell membrane into the cell interior. A lower IC50 value indicates a greater ability to move into the cell interior.

[1] = Table 4, Comparative Example, read-out: Comparative Example Btk IC50
[2] = Homo sapiens, Ramos, Table 4, Comparative Example, read-out: Comparative Example Ramos IC50
[3] = Table 3, ATP 20 μM, 60 min room temperature, read-out: Btk IC50 value
[4] = Ramos, Table 3, calcium flux, goat anti-human IgM 2.5 μg/mL, read-out: Ramos IC50 value
[5] = Table 4, read-out: Example Btk IC50
[6] = Homo sapiens, Ramos, Table 4, read-out: Example Ramos IC50
[7] = Homo sapiens, Ramos, Table 3, calcium flux, goat anti-human IgM 2.5 μg/mL, read-out: Ramos IC50 value

Row | SMILES | IC50 (Ramos RA1 B cells; [2]) [nM] | IC50 (human recombinant Btk; [3]) [nM] | IC50 (Ramos RA1 B cells; [4]) [nM] | further results
1 | C=CC(=O)N1CCCOc2c(-c3c(F)cc(C(N)=O)c4[nH]c5cc(C(F)(F)F)ccc5c34)cccc21 (single isomer, unassigned) [Comparative Example 22, 4-(5-Acryloyl-2,3,4,5-tetrahydrobenzo[b][1,4]oxazepin-9-yl)-3-fluoro-7-(trifluoromethyl)-9H-carbazole-1-carboxamide] | 300 | – | – | IC50 (human recombinant Btk; [1]): 9.5 nM
2 | N#CN1CCc2c(cccc2-c2c(F)cc(C(N)=O)c3[nH]c4cc(CCO)ccc4c23)C1 (racemic) [Example 27, 4-(2-cyano-1,2,3,4-tetrahydroisoquinolin-5-yl)-3-fluoro-7-(2-hydroxyethyl)-9H-carbazole-1-carboxamide] | – | 4.8 | 142 | –
3 | C=CC(=O)N1CCc2c(cccc2-c2c(F)cc(C(N)=O)c3[nH]c4ccncc4c23)C1 (racemic) [Example 31, 9-(2-acryloyl-1,2,3,4-tetrahydroisoquinolin-5-yl)-8-fluoro-5H-pyrido[4,3-b]indole-6-carboxamide] | – | 0.3 | 13 | –
4 | C=CC(=O)N1CCc2c(cccc2-c2c(F)cc(C(N)=O)c3[nH]c4cc(C(=O)N(C)C)ccc4c23)C1 (racemic) [Example 28, 4-(2-acryloyl-1,2,3,4-tetrahydroisoquinolin-5-yl)-3-fluoro-N7,N7-dimethyl-9H-carbazole-1,7-dicarboxamide] | – | 0.17 | 17 | –
5 | C=CC(=O)N1CCSc2c(-c3c(F)cc(C(N)=O)c4[nH]c5ccccc5c34)cccc21 (single isomer, unassigned) [Example 14, 4-(4-acryloyl-3,4-dihydro-2H-benzo[b][1,4]thiazin-8-yl)-3-fluoro-9H-carbazole-1-carboxamide] | – | 0.073 | 7.8 | Potency Difference Btk: ratio of IC50 value for the Comparative Example to that for the corresponding Example (human recombinant Btk): 60; IC50 (human recombinant Btk; [5]): 0.073 nM; Potency Difference Ramos: ratio of IC50 value for the Comparative Example to that for the corresponding Example (Ramos RA1 B cells): 19; IC50 (Ramos RA1 B cells; [6]): 7.8 nM
6 | C=CC(=O)N1CCOc2c(-c3c(F)cc(C(N)=O)c4[nH]c5ccccc5c34)cccc21 (single isomer, unassigned) [Comparative Example 18, 4-(4-Acryloyl-3,4-dihydro-2H-benzo[b][1,4]oxazin-8-yl)-3-fluoro-9H-carbazole-1-carboxamide] | 65 | – | – | IC50 (human recombinant Btk; [1]): 1.5 nM
7 | C=CC(=O)N1CCc2c(cccc2-c2c(F)cc(C(N)=O)c3[nH]c4ccccc4c23)C1 (single isomer, unassigned) [Comparative Example 15, 4-(2-Acryloyl-1,2,3,4-tetrahydroisoquinolin-5-yl)-3-fluoro-9H-carbazole-1-carboxamide] | 72 | – | – | IC50 (human recombinant Btk; [1]): 4 nM
8 | C=CC(=O)N1CCc2c(cccc2-c2c(F)cc(C(N)=O)c3[nH]c4c(c23)CC[C@H](C(C)(C)O)C4)C1 (single isomer, unassigned) [Example 9] | – | – | – | IC50 (Ramos RA1 B cells; [7]): 2.3 nM; IC50 (Ramos RA1 B cells; [6]): 2.3 nM
9 | C=CC(=O)N1CCc2c(cccc2-c2c(F)cc(C(N)=O)c3[nH]c4c(c23)CCC(C(F)(F)F)C4)C1 (single isomer, unassigned) [Comparative Example 20, 5-(2-Acryloyl-1,2,3,4-tetrahydroisoquinolin-5-yl)-6-fluoro-2-(trifluoromethyl)-2,3,4,9-tetrahydro-1H-carbazole-8-carboxamide] | > 300 | – | – | –
10 | C=CC(=O)N1CCSc2c(-c3c(F)cc(C(N)=O)c4[nH]c5ccccc5c34)cccc21 (racemic) [Example 13, (RS)-4-(4-acryloyl-3,4-dihydro-2H-benzo[b][1,4]thiazin-8-yl)-3-fluoro-9H-carbazole-1-carboxamide] | – | 0.13 | 9.2 | –
11 | C=CC(=O)N1CCc2c(cccc2-c2c(F)cc(C(N)=O)c3[nH]c4c(c23)CC(F)(F)CC4)C1 (single isomer, unassigned) [Comparative Example 16, 5-(2-Acryloyl-1,2,3,4-tetrahydroisoquinolin-5-yl)-3,3,6-trifluoro-2,3,4,9-tetrahydro-1H-carbazole-8-carboxamide] | > 300 | – | – | IC50 (human recombinant Btk; [1]): 4.5 nM
12 | C=CC(=O)N1CCc2c(cccc2-c2c(Cl)cc(C(N)=O)c3[nH]c4ccccc4c23)C1 (single isomer, unassigned) [Example 24] | – | – | – | IC50 (Ramos RA1 B cells; [7]): 3 nM
13 | C=CC(=O)N1CCc2c(cccc2-c2c(F)cc(C(N)=O)c3[nH]c4ccc(Cl)cc4c23)C1 (racemic) [Example 29, 4-(2-acryloyl-1,2,3,4-tetrahydroisoquinolin-5-yl)-6-chloro-3-fluoro-9H-carbazole-1-carboxamide] | – | 0.26 | 107 | –
14 | C=CC(=O)N1CCOc2c(-c3c(F)cc(C(N)=O)c4[nH]c5ccccc5c34)cccc21 (racemic) [Example 3, (RS)-4-(4-acryloyl-3,4-dihydro-2H-benzo[b][1,4]oxazin-8-yl)-3-fluoro-9H-carbazole-1-carboxamide] | – | 0.075 | 4.6 | –
15 | C=CC(=O)N1CCSc2c(-c3c(F)cc(C(N)=O)c4[nH]c5ccccc5c34)cccc21 (single isomer, unassigned) [Comparative Example 23, 4-(4-Acryloyl-3,4-dihydro-2H-benzo[b][1,4]thiazin-8-yl)-3-fluoro-9H-carbazole-1-carboxamide] | 150 | – | – | IC50 (human recombinant Btk; [1]): 4.4 nM
16 | C=CC(=O)N1CCc2c(cccc2-c2c(Cl)cc(C(N)=O)c3[nH]c4ccccc4c23)C1 [Example 30] | – | – | – | IC50 (Ramos RA1 B cells; [7]): 20 nM
17 | C=CC(=O)N1CCc2c(cccc2-c2c(F)cc(C(N)=O)c3[nH]c4c(c23)CCC(C(F)(F)F)C4)C1 (single isomer, unassigned) [Example 11, 5-(2-Acryloyl-1,2,3,4-tetrahydroisoquinolin-5-yl)-6-fluoro-2-(trifluoromethyl)-2,3,4,9-tetrahydro-1H-carbazole-8-carboxamide] | – | – | – | IC50 (Ramos RA1 B cells; Table 3, calcium flux, goat anti-human IgM 2.5 μg/mL, read-out: Ramos IC50 value): 16.3 nM; IC50 (Ramos RA1 B cells; Table 4, read-out: Example Ramos IC50): 16 nM
18 | C=CC(=O)N1CCc2c(cccc2-c2c(F)cc(C(N)=O)c3[nH]c4c(c23)CCC(C(F)(F)F)C4)C1 (single isomer, unassigned) [Example 10, 5-(2-Acryloyl-1,2,3,4-tetrahydroisoquinolin-5-yl)-6-fluoro-2-(trifluoromethyl)-2,3,4,9-tetrahydro-1H-carbazole-8-carboxamide] | – | – | – | IC50 (Ramos RA1 B cells; [7]): 22.2 nM; IC50 (Ramos RA1 B cells; [6]): 22 nM
19 | C=CC(=O)N1CCc2c(cccc2-c2c(F)cc(C(N)=O)c3[nH]c4c(c23)CCC(C(F)(F)F)C4)C1 (single isomer, unassigned) [Comparative Example 21, 5-(2-Acryloyl-1,2,3,4-tetrahydroisoquinolin-5-yl)-6-fluoro-2-(trifluoromethyl)-2,3,4,9-tetrahydro-1H-carbazole-8-carboxamide] | – | – | – | IC50 (Ramos RA1 B cells; Table 4, Comparative Example, read-out: Comparative Example Ramos IC50): > 300 nM

Further lines, with some results ahead:

Row | IC50 (Ramos RA1 B cells; [2]) [nM] | IC50 (human recombinant Btk; [3]) [nM] | IC50 (Ramos RA1 B cells; [4]) [nM] | SMILES | further results
20 | – | 0.077 | 6.9 | C=CC(=O)N1CCOc2c(-c3c(F)cc(C(N)=O)c4[nH]c5ccccc5c34)cccc21 (single isomer, unassigned) [Example 8, 4-(4-Acryloyl-3,4-dihydro-2H-benzo[b][1,4]oxazin-8-yl)-3-fluoro-9H-carbazole-1-carboxamide] | Potency Difference Btk: ratio of IC50 value for the Comparative Example to that for the corresponding Example (human recombinant Btk): 19; IC50 (human recombinant Btk; [5]): 0.077 nM; Potency Difference Ramos: ratio of IC50 value for the Comparative Example to that for the corresponding Example (Ramos RA1 B cells): 9.4; IC50 (Ramos RA1 B cells; [6]): 6.9 nM
21 | – | 0.18 | 10.7 | C=CC(=O)N1CCc2c(cccc2-c2c(F)cc(C(N)=O)c3[nH]c4cc(C(F)(F)F)ccc4c23)C1 (single isomer, unassigned) [Example 7, 4-(2-Acryloyl-1,2,3,4-tetrahydroisoquinolin-5-yl)-3-fluoro-7-(trifluoromethyl)-9H-carbazole-1-carboxamide] | Potency Difference Btk: ratio of IC50 value for the Comparative Example to that for the corresponding Example (human recombinant Btk): 78; IC50 (human recombinant Btk; [5]): 0.18 nM; Potency Difference Ramos: ratio of IC50 value for the Comparative Example to that for the corresponding Example (Ramos RA1 B cells): >27; IC50 (Ramos RA1 B cells; [6]): 11 nM
22 | > 300 | – | – | C=CC(=O)N1CCc2c(cccc2-c2c(F)cc(C(N)=O)c3[nH]c4c(c23)CC[C@H](C(C)(C)O)C4)C1 (single isomer, unassigned) [Comparative Example 19] | –
23 | – | 2.3 | – | C=CC(=O)N1CCc2c(cccc2-c2c(Cl)cc(C(N)=O)c3[nH]c4c(c23)CNCC4)C1 (racemic) [Example 33, 9-(2-acryloyl-1,2,3,4-tetrahydroisoquinolin-5-yl)-8-chloro-2,3,4,5-tetrahydro-1H-pyrido[4,3-b]indole-6-carboxamide] | –
